Measured values from ChEMBL document CHEMBL1201862, “PubChem BioAssay data set” (2004).
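These data come from cells grown in 96-well plates and exposed to compound for 48 hours at five concentrations. At the GI50, growth is halved.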 Calls of active or inactive are those of the source. Cut-off read from the data, not from the text of the source: active = GI50 up to about 1.1 µM and inactive = higher.

Experiments:
Experiment in all cases: DTP human tumour cell line panel, 48 h
T47D = system: T47D
BT-549 = system: BT-549
KM12 = system: KM12
PC-3 = system: PC-3
HCT-116 = system: HCT-116
MDA-MB-231 = system: MDA-MB-231
RXF 393 = system: RXF 393
SF-539 = system: SF-539
NCI-H522 = system: NCI-H522
MDA-MB-435 = system: MDA-MB-435
SNB-75 = system: SNB-75
EKVX = system: EKVX
SN12C = system: SN12C
HT-29 = system: HT-29
SK-MEL-28 = system: SK-MEL-28
SK-MEL-5 = system: SK-MEL-5
IGROV-1 = system: IGROV-1
SW-620 = system: SW-620
A498 = system: A498

Structure (SMILES)	GI50 (T47D)	GI50 (BT-549)	GI50 (KM12)	GI50 (PC-3)	GI50 (HCT-116)	GI50 (MDA-MB-231)	GI50 (RXF 393)	GI50 (SF-539)	GI50 (NCI-H522)	GI50 (MDA-MB-435)	GI50 (SNB-75)	GI50 (EKVX)	GI50 (SN12C)	GI50 (HT-29)	GI50 (SK-MEL-28)	GI50 (SK-MEL-5)	GI50 (IGROV-1)	GI50 (SW-620)	GI50 (A498)
CCC(C)N1CN(c2ccccc2)C2(CCN(CCCSc3ccc(F)cc3)CC2)C1=O (stereo not given)	2.99 µM (inactive)	1.66 µM (inactive)	3.92 µM (inactive)	6.35 µM (inactive)	2.88 µM (inactive)	0.296 µM (active)	2.84 µM (inactive)	2.57 µM (inactive)	5.97 µM (inactive)	3.05 µM (inactive)	11.1 µM (inactive)	3.33 µM (inactive)	3.78 µM (inactive)	2.15 µM (inactive)	11.6 µM (inactive)	1.96 µM (inactive)	4.31 µM (inactive)	4.06 µM (inactive)	
COc1nc2c(c(=O)n1C)N[C@@H]1[C@@H](O)[C@H](O)CO[C@@H]1N2	> 100 µM (inactive)	> 100 µM (inactive)	> 100 µM (inactive)	> 100 µM (inactive)	> 100 µM (inactive)		> 100 µM (inactive)	> 100 µM (inactive)	38.2 µM (inactive)	> 100 µM (inactive)	> 100 µM (inactive)	> 100 µM (inactive)	> 100 µM (inactive)	> 100 µM (inactive)	> 100 µM (inactive)	> 100 µM (inactive)	> 100 µM (inactive)	> 100 µM (inactive)	> 100 µM (inactive)
CCOC(=O)c1nc2ccccc2nc1Oc1ccc(C#N)cc1	> 100 µM (inactive)	> 100 µM (inactive)	> 100 µM (inactive)	> 100 µM (inactive)	> 100 µM (inactive)	> 10 µM (inactive)	> 100 µM (inactive)	> 100 µM (inactive)		> 100 µM (inactive)		> 100 µM (inactive)	> 100 µM (inactive)	> 100 µM (inactive)	> 100 µM (inactive)	> 100 µM (inactive)	> 100 µM (inactive)	> 100 µM (inactive)	> 100 µM (inactive)
CCCCC/C=C\C=C\CCCCCCCCC(=O)OC	> 100 µM (inactive)	> 100 µM (inactive)	> 100 µM (inactive)	> 100 µM (inactive)	> 100 µM (inactive)	> 100 µM (inactive)	> 100 µM (inactive)	> 100 µM (inactive)			> 100 µM (inactive)	> 100 µM (inactive)	> 100 µM (inactive)	> 100 µM (inactive)	> 100 µM (inactive)	24 µM (inactive)	> 100 µM (inactive)	> 100 µM (inactive)	> 100 µM (inactive)
CC1N[B@@-](C)(c2ccc(C(F)(F)F)cc2)OC1c1ccccc1 (stereo not given in full)	> 100 µM (inactive)	> 100 µM (inactive)		53.3 µM (inactive)	89.3 µM (inactive)	> 100 µM (inactive)				> 100 µM (inactive)	32.6 µM (inactive)	41.4 µM (inactive)	> 100 µM (inactive)	72.1 µM (inactive)	> 100 µM (inactive)	87.7 µM (inactive)	> 100 µM (inactive)	> 100 µM (inactive)	58.9 µM (inactive)
COC(=O)Nc1nc2ccccc2[nH]1 [CARBENDAZIM]	9.51 µM (inactive)	10.1 µM (inactive)	4.26 µM (inactive)	15.3 µM (inactive)	4.21 µM (inactive)	27.8 µM (inactive)	17.5 µM (inactive)	5.2 µM (inactive)		2.34 µM (inactive)	9.38 µM (inactive)	> 52.7 µM (inactive)	21.9 µM (inactive)	4.66 µM (inactive)	16.2 µM (inactive)	6.03 µM (inactive)	8.17 µM (inactive)	3.57 µM (inactive)	> 100 µM (inactive)
CCCNc1c(Cl)cc(Cl)c2[nH]c3ccccc3c(=O)c12	> 100 µM (inactive)	75.3 µM (inactive)	27.2 µM (inactive)	37.1 µM (inactive)	43.6 µM (inactive)	77.1 µM (inactive)		32.4 µM (inactive)	37.1 µM (inactive)	39.9 µM (inactive)	31.5 µM (inactive)	35.6 µM (inactive)	95.9 µM (inactive)	22.5 µM (inactive)	> 100 µM (inactive)	32.7 µM (inactive)	24.5 µM (inactive)	88.5 µM (inactive)	29.7 µM (inactive)
CC(C)(C)n1c(=O)n2n(c1=O)C1c3cccc4cccc(c34)C2C2c3cccc4cccc(c34)C1n1c(=O)n(C(C)(C)C)c(=O)n12	44.9 µM (inactive)	> 100 µM (inactive)	> 100 µM (inactive)	59.8 µM (inactive)	61.9 µM (inactive)	32.9 µM (inactive)		41.4 µM (inactive)	36 µM (inactive)	> 100 µM (inactive)	10.8 µM (inactive)	63.1 µM (inactive)	> 100 µM (inactive)	> 100 µM (inactive)	> 100 µM (inactive)	> 100 µM (inactive)	21.7 µM (inactive)	90.4 µM (inactive)	> 100 µM (inactive)
CCCC(=O)Nc1ncnc2c1ncn2C1OC2COP(=O)(O)OC2C1OC(=O)CCC (stereo not given)	> 100 µM (inactive)	> 1000 µM (inactive)	> 100 µM (inactive)	> 100 µM (inactive)	> 100 µM (inactive)	479 µM (inactive)		382 µM (inactive)	> 100 µM (inactive)	> 100 µM (inactive)	0.0246 µM (active)	> 100 µM (inactive)	> 100 µM (inactive)	> 100 µM (inactive)	> 100 µM (inactive)	> 100 µM (inactive)	22.5 µM (inactive)	> 100 µM (inactive)	31.9 µM (inactive)
CC(=O)O[C@@H]1O[Si](C(C)(C)C)(C(C)(C)C)[C@H](C)[C@H]1C	> 100 µM (inactive)	> 100 µM (inactive)	30.5 µM (inactive)	33 µM (inactive)	29.9 µM (inactive)	> 100 µM (inactive)		> 100 µM (inactive)	56.6 µM (inactive)	94.8 µM (inactive)	6.62 µM (inactive)	41.7 µM (inactive)	> 100 µM (inactive)	18.6 µM (inactive)	> 100 µM (inactive)	26.1 µM (inactive)	21.1 µM (inactive)	40 µM (inactive)	> 100 µM (inactive)
COP1(=O)OCc2cnccc2O1 (stereo not given)	> 100 µM (inactive)	> 100 µM (inactive)	> 100 µM (inactive)	> 100 µM (inactive)	> 100 µM (inactive)	> 100 µM (inactive)		> 100 µM (inactive)	> 100 µM (inactive)	> 100 µM (inactive)	> 100 µM (inactive)	> 100 µM (inactive)	> 100 µM (inactive)	> 100 µM (inactive)	> 100 µM (inactive)	> 100 µM (inactive)	> 100 µM (inactive)	> 100 µM (inactive)	
CN(C)CCCNCc1cccc2ccccc12	> 100 µM (inactive)	> 100 µM (inactive)	> 100 µM (inactive)	> 100 µM (inactive)	> 100 µM (inactive)	> 100 µM (inactive)	> 100 µM (inactive)	> 100 µM (inactive)		> 100 µM (inactive)	> 100 µM (inactive)	> 100 µM (inactive)	> 100 µM (inactive)	> 100 µM (inactive)	> 100 µM (inactive)	> 100 µM (inactive)	> 100 µM (inactive)	> 100 µM (inactive)	> 100 µM (inactive)
O=C(Nc1ccccc1C(=O)Nc1nccs1)c1ccccc1	2.84 µM (inactive)	15.1 µM (inactive)	6.03 µM (inactive)	2.45 µM (inactive)	12.1 µM (inactive)	25.1 µM (inactive)		43 µM (inactive)	14.3 µM (inactive)	33.7 µM (inactive)	21.1 µM (inactive)	36.6 µM (inactive)	59 µM (inactive)	4.44 µM (inactive)	20.7 µM (inactive)	4.55 µM (inactive)	35.8 µM (inactive)	25.6 µM (inactive)	8.51 µM (inactive)
C[C@]12CC(c3ccccc3O1)C(C#N)C(=O)N2 (stereo not given in full)	> 100 µM (inactive)	> 100 µM (inactive)	> 100 µM (inactive)	> 100 µM (inactive)	> 100 µM (inactive)	> 100 µM (inactive)	> 100 µM (inactive)			> 100 µM (inactive)	> 100 µM (inactive)	> 100 µM (inactive)	> 100 µM (inactive)	> 100 µM (inactive)	> 100 µM (inactive)	> 100 µM (inactive)	> 100 µM (inactive)	> 100 µM (inactive)	> 100 µM (inactive)
Cc1c2c(n(Cc3ccccn3)c1C)NN=C(C#N)S2(=O)=O	> 100 µM (inactive)	> 100 µM (inactive)	> 100 µM (inactive)	> 100 µM (inactive)	> 100 µM (inactive)	> 100 µM (inactive)		> 100 µM (inactive)	> 100 µM (inactive)	> 100 µM (inactive)	> 100 µM (inactive)	> 100 µM (inactive)	> 100 µM (inactive)	> 100 µM (inactive)	> 100 µM (inactive)	> 100 µM (inactive)	> 100 µM (inactive)	> 100 µM (inactive)	> 100 µM (inactive)
CC(C)N(c1cc2c(cc1F)c(=O)c(C(=O)O)cn2-c1ccc(N2CCN(C)CC2)cn1)C(C)C	> 100 µM (inactive)	86.7 µM (inactive)	> 100 µM (inactive)	> 100 µM (inactive)	> 100 µM (inactive)	> 100 µM (inactive)	> 100 µM (inactive)	> 100 µM (inactive)		> 100 µM (inactive)	> 100 µM (inactive)	> 100 µM (inactive)	> 100 µM (inactive)	> 100 µM (inactive)	> 100 µM (inactive)		> 100 µM (inactive)	> 100 µM (inactive)	> 100 µM (inactive)
